Here are results for 1 compound from patent publication US10738093B2, “Discovery of cationic nonribosomal peptides as Gram-negative antibiotics through global genome mining” (The Hong Kong University of Science and Technology, priority 2018, dated 2020).

In general, MIC refers to the least concentration at which growth counts as inhibited. The Kd is the equilibrium constant for the complex coming apart.

Molecules are shown by their SMILES. In brackets after ≈: the same amount, converted by molar mass. Positions of bridges follow the written chain, without caps; N, C: chain ends. Non-standard residues stand in square brackets, D forms with d. Residues, ends and D or L forms follow the SMILES beside them. ξ: configuration not given here. *: point of attachment. Hexanoyl(4ξ-Me) = CCC(C)CCC(=O)*; dOrn = NCCC[C@@H](N)C(=O)O; Orn = NCCC[C@H](N)C(=O)O

Assay [1] has as its system Escherichia coli ATCC 25922. In words: Resistance acquisition during serial passaging. It is filed as cell-based. The note with it: serial passaging at subinhibitory concentrations over 30 days. The protocol: Escherichia coli ATCC 25922 was inoculated into MHB overnight at 37° C. with continuous shaking. Cells were diluted 10,000 times in MHB to about 1×10^6 c.f.u./mL. […] Plates with bacteria were incubated at 37° C. without shaking. […] This process was repeated for 30 d, and the final MIC was confirmed by the same antibacterial assay described above. The experiment was performed in quadruplicate, and on each day, the sample that developed the highest resistance was measured to plot the curve.

In assay [2] the test system is Saccharomyces cerevisiae VL-48. Description: MIC, Saccharomyces cerevisiae. It is filed as cell-based. As to the method: (§1) Minimum inhibitory concentration (MIC) was determined by broth microdilution according to CLSI guidelines. The test medium for most species was Mueller-Hinton broth (MHB). Bacteria were grown overnight to early stationary phase and adjusted in MHB to 5.0×10^5 colony-forming units per mL (c.f.u./mL) in the wells of 96-well microtiter plates, mixed with varying concentrations of test compounds and incubated at 37° C. for 24 h. […] MHBs containing 10% fetal bovine serum (Gibco), 21 mM MgCl, or 1.0 mg/ml LPS (lipopolysaccharides from Escherichia coli O55:B5, Sigma-Aldrich) were used to test their inhibitory effects.

Assay [3] concerns K. pneumoniae NRRL-B-3521. The assay is classed as cell-based, Klebsiella pneumoniae. The note with it: NRRL-B-3521. As to the method: as §1
Assay [4] is described as follows: LPS binding by isothermal titration calorimetry. On the set-up: species or system Escherichia coli. To be noted: ITC. As to the method: Microcalorimetric experiments of peptide binding to LPS were performed on an MCS isothermal titration calorimeter (ITC) (Microcal, Northampton, Mass.) at 37° C. LPS was prepared as a 50 μM aqueous suspension in 20 mM HEPES (pH 7.0) buffer by suspension, sonication and temperature cycling between 5° C. and 70° C. This suspension was stored at 4° C. overnight prior to use. 100 μM peptide solutions (brevicidine and polymyxin B) were prepared in the same buffer and all solutions were degassed prior to use by stirring under vacuum for 5 min at 37° C. After thermal equilibration, 5 μL aliquots of the peptide solution were added every 3 min into the lipid-containing cell at 37° C. and stirred constantly. The change in heat during the titration steps was registered in real time and raw data were processed using the Origin® 7 software provided with the instrument. In control experiments, the corresponding peptide solution (or LPS solution) was injected into the buffer without LPS (or without peptide).
(Isothermal titration calorimetry measures the heat released or taken up as one component is titrated into another.)

The test system of assay [5] is E. coli Top10. The assay is classed as cell-based, Escherichia coli. To be noted: Top10. As to the method:
as §1

The subject of assay [6] is Colistin-resistant E. coli (E. coli ATCC 25922 carrying mcr-1). It is filed as cell-based, Escherichia coli. As to the method: as §1
The test system of assay [7] is E. coli Top10. Description: Time-kill assay. It is filed as cell-based, Escherichia coli. The protocol:
An overnight culture of E. coli Top10 or Pseudomonas aeruginosa PAO1 cells was diluted 1:10,000 in MHB and incubated at 37° C. with agitation at 180 rpm for 2 h (early exponential). The bacteria were then challenged with antibiotics at 10×MIC, brevicidine (20 μg/ml), laterocidine (20 μg/ml) or polymyxin B (10 μg/ml) at room temperature without shaking. An untreated sample of cells was used as a negative control. At intervals, 10 μL aliquots were removed, centrifuged at 10,000 g for 1 min and resuspended in 1.0 mL of sterile PBS. Tenfold-serially-diluted suspensions were plated on MHB agar plates and incubated at 37° C. overnight. Colonies were counted and the number of c.fu. per mL was calculated. For analysis of lysis, 300 μL of culture (OD600=1.0) were treated with 10×MIC of antibiotics for 24 h. Experiments were performed in triplicate.

Assay [8] relates to E. coli ATCC 25922. Description: Neutropenic mouse thigh infection model. It is filed as in vivo, Escherichia coli. As to the method:
In vivo activities of brevicidine and laterocidine were tested using the mouse thigh infection model. Animal studies were performed by Pharmacology Discovery Services Taiwan Ltd. (Taipei, Taiwan) in general accordance with standard guidelines on animal welfare in an AAALAC-accredited facility. The protocol was reviewed and approved by the Institutional Animal Care and Use Committee. Groups of five female specific-pathogen-free ICR (CD-1) mice weighing 22±2 g (˜5 weeks of age) were used. Animals were immunosuppressed with two intraperitoneal injections of cyclophosphamide, the first at 150 mg/kg 4 d before infection (day −4) and the second at 100 mg/kg 1 d before infection (day −1). On day 0, animals were inoculated intramuscularly (0.1 ml/thigh) in the right thigh with an E. coli ATCC 25922 suspension. Vehicle (10% DMSO, 1% Tween 80, 0.9% NaCl) and antibiotics were then subcutaneously injected 2 h and 8 h later. Due to limited amount of compounds 1-2, only one concentration of 1(30 mg/kg) or 2 (15 mg/kg) was used in this study. At 26 h after inoculation, animals were euthanized by CO2 asphyxiation before the muscle of the right thigh was harvested from each test animal. The removed muscle was homogenized in 5 mL of PBS, pH 7.4, with a polytron homogenizer. Homogenates in the amount of 0.1 mL were used for serial tenfold dilutions and plated onto a nutrient agar medium for colony count (c.f.u./g) determination.

Assay [9] deals with E. coli ATCC 25922. In words: Atomic force microscopy of treated E. coli. It is filed as cell-based, Escherichia coli. The note with it: E. coli ATCC25922, 10×MIC. The protocol:
The samples were then centrifuged at 8000 g for 10 min at 4° C., and the pellet was washed twice in 100 lpL of apyrogenic water. The bacteria resuspended in 50 μL of apyrogenic water were applied to mica disks and dried overnight at 28° C. before imaging. Atomic force micrographs were recorded on a Veeco Mulitmode AFM with NanoScope III controller operating in contact mode. The data were analyzed with NanoScope Analysis software v.1.40 (Veeco, USA). Scans were acquired at 25° C. at the rates of 1.0 Hz and 256 samples per line resolution. Downstream image processing and analysis were performed using NanoScope software (Bruker). Height images were flattened to compensate for cell curvature, and topographical sections were used to generate two-dimensional reconstructions of surface texture.

As for `CCC(C)CCC(=O)N[C@H](CC(N)=O)C(=O)N[C@H](Cc1ccc(O)cc1)C(=O)N[C@H](Cc1c[nH]c2ccccc12)C(=O)N[C@H](CCCN)C(=O)N[C@@H](CCCN)C(=O)NCC(=O)N[C@H](CCCN)C(=O)N[C@@H](Cc1c[nH]c2ccccc12)C(=O)N[C@@H]1C(=O)N[C@@H]([C@@H](C)CC)C(=O)NCC(=O)N[C@H](CO)C(=O)O[C@@H]1C` (stereo partly drawn) [Compound 1, 4-Methyl-Hexanoyl-D-Asn-D-Tyr-D-Trp-D-Orn-Orn-Gly-D-Orn-Trp-Thr-Ile-Gly-Ser (cyclized via lactone formation between Thr and the C-terminus)] ({Hexanoyl(4ξ-Me)}-[dN][dY][dW][dOrn][Orn]G[dOrn]WTIG[dS]; ester 9-C), the development of resistance entry in assay [1] is on record as “development of resistance was not observed”. The minimal inhibitory concentration (MIC) in [2] (Saccharomyces cerevisiae) was over 64 µg/mL; in [3], 4 µg/mL (≈ 2.63 µM); against E. coli Top10 [5], 2 µg/mL (≈ 1.32 µM); in assay [6] it was 2 µg/mL (≈ 1.32 µM). Further, the “MIC Sc” value in assay [2] (Table 2, Saccharomyces cerevisiae VL-48) is reported as “ND (ND >64 μg/ml)”. Moreover, in assay [4] (37° C., read-out: dissociation constant Kd for LPS), the Kd was 6.5 µM. For the same compound, the “binding to LPS” value in assay [4] (FIGS. 18a-18b) is “strong binding to LPS”. For the same compound, in the assay with E. coli Top10 [7] (10 times the MIC), the “time of exposure to significant reduction of viable cells” value is given as 30 min. The “time of exposure to slightly reduced cell viability” value with E. coli Top10 [7] (10 times the MIC) is 15 min. Further, the “bactericidal against E. coli” value with E. coli Top10 [7] (growth kinetics, time-kill assay and lysis assay) is “bactericidal”. In the assay on E. coli ATCC 25922 [8] (brevicidine 30 mg/kg or laterocidine 15 mg/kg, 2 times, after 26 h), the “bactericidal efficacy in mouse thigh infection (viable bacteria)” value is “reduced numbers of viable bacteria”. Besides, in the assay on E. coli ATCC 25922 [8] (mice, 30 mg/kg subcutaneously, two doses, at 24 h), the “reduction of c.fu. in thigh compared to the vehicle control” value stood at 5 log10. The “cell morphology by AFM” value in the assay with E. coli ATCC 25922 [9] is “lost their regular rod-like shape and became lumpy and rugged”.
